Assay results as given in patent US6660755B2, “Substituted diaryl or diheteroaryl methans, ethers and amines having retinoid agonist, antagonist or inverse agonist type biological activity” (Allergan, Inc., priority 1997, dated 2003).

How the values were obtained:
[1] = molecular target: RARβ (Homo sapiens, UniProt P10826, E106G/G107S/G110V); experiment: PGR assay (RAR-P-GR holoreceptor transactivation), RARβ; type: cell-based; conditions: for EC50: PGR assay (transactivation), CV-1 cells, luciferase reporter; for Emax: 18 h
Chain of RARβ (P19793 whole entry): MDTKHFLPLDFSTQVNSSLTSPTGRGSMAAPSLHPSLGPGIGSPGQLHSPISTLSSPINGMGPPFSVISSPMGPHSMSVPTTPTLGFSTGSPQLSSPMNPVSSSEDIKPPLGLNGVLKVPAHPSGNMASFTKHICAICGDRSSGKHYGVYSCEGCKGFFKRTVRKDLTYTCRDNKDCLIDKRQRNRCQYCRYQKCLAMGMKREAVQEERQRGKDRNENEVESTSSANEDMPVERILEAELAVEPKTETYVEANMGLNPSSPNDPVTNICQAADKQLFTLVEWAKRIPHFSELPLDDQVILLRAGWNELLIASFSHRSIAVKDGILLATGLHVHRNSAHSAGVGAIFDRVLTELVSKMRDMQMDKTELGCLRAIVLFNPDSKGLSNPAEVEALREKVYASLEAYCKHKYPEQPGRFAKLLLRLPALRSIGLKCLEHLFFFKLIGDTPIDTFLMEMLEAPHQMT
Chain of RARβ (P10826 whole entry E106G/G107S/G110V): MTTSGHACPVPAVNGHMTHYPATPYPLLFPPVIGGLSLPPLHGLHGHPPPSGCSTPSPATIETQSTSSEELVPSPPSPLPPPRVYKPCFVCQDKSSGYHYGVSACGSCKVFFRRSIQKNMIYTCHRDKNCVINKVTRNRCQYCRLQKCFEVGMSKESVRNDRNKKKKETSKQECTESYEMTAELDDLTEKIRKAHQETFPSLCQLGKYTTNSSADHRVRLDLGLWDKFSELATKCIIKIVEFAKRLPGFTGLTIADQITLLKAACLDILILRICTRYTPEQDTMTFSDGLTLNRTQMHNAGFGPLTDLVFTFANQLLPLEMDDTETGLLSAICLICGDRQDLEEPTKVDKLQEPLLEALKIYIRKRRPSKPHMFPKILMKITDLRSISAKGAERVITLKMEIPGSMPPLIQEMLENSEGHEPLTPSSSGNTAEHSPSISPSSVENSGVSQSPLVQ
Description: (§1) A holoreceptor transactivation assay and a ligand binding assay which measure the antagonist/agonist like activity of the compounds of the invention, or their ability to bind to the several retinoid receptor subtypes, respectively, are described in published PCT Application No. WO WO93/11755 (particularly on pages 30-33 and 37-41) published on Jun. 24, 1993, the specification of which is also incorporated herein by reference. A detailed experimental procedure for holoreceptor transactivations has been described by Heyman et al. Cell 1992, 68, 397-406; Allegretto et al. J. Biol. Chem. 1993 268, 26625-26633, and Mangelsdorf et al. The Retinoids: Biology, Chemistry and Medicine, pp 319-349, Raven Press Ltd., New York, which are expressly incorporated herein by reference. The results obtained in this assay are expressed in EC50 numbers, as they are also in the chimeric receptor transactivation assay. The results of ligand binding assay are expressed in Kd numbers. (See Cheng et al. Biochemical Pharmacology 22, 3099-3108, expressly incorporated herein by reference.) Still another transactivation assay, the “PGR assay” is described in the publication Klein et al. J. Biol. Chem. 1996, 271, 22692-22696, which is expressly incorporated herein by reference, and a detailed description is also provided below. The results of the PGR assay are also expressed in EC50 numbers (nanomolar concentration).
RAR-P-GR holoreceptor Transactivation Assay
CV-1 cells (4×10^5 cells/well) were transiently transfected with the luciferase reporter plasmid MTV-4(R5G)-Luc (0.7 μg/well) containing four copies of the R5G retinoid DNA response element along with the RXRα expression plasmid pRS-hRXRa (0.1 μg/well) and one of the RAR-P-GR expression plasmids (0.05 μg/well) in 12 well plates via calcium phosphate precipitation Chen et al. Mol. Cell. Biol. 1987, 7, 2745-2752 as described by Klein et al. J. Biol. Chem. 1996, 271, 22692, referenced above. The three different RAR-P-GR expression plasmids, pRS-RARα-P-GR, pcDNA3-RARβ-P-GR and pcDNA3-RARγ-P-GR, express RARα, RARβ and RARγ receptors, respectively, which contain modified DNA binding domains such that their “P-boxes” have been altered to that of the glucocorticoid receptor. These RAR-P-GR receptors bind to DNA as heterodimeric complexes with RXR. Specifically, the RAR-P-GR receptors bind retinoic acid response elements designated R5G, comprised of two RAR half sites (nucleotide sequence 5′-GGTTCA-3′) separated by 5 base pairs in which the 3′-half site has been modified to that of a glucocorticoid receptor half site, 5′-AGAACA-3′. To allow for various in transfection efficiency a β-galactosidase expression plasmid (0.01 μg/well) was used as an internal control. Alternatively, the assay was performed in a 96-well microtiter plate format (5000 cells/well) in a manner which was identical to that described above except ⅕ of the amount of the DNA-calcium phosphate precipitant (20 μl instead of 100 Al) was applied to each well. Eighteen hours after introduction of the DNA precipitants, cells were rinsed with phosphate buffered saline (PBS) and fed with D-MEM (Gibco-BRL) containing 10% activated charcoal extracted fetal bovine serum (Gemini Bio-Products). After rinsing with PBS cells were lysed with luciferase activity was measured as previously described in de Wet Mol. Cell. Biol. 1987, 7, 725-737. Luciferase values represent the mean±SEM of triplicate determinations normalized to β-galactosidase activity. The results of the PGR assay are also expressed in EC50 numbers (nanomolar concentration).

[2] = molecular target: T1, RARγ (Homo sapiens, UniProt P13631); experiment: Ligand binding assay, RARγ
T1 sequence (P13631 1-454): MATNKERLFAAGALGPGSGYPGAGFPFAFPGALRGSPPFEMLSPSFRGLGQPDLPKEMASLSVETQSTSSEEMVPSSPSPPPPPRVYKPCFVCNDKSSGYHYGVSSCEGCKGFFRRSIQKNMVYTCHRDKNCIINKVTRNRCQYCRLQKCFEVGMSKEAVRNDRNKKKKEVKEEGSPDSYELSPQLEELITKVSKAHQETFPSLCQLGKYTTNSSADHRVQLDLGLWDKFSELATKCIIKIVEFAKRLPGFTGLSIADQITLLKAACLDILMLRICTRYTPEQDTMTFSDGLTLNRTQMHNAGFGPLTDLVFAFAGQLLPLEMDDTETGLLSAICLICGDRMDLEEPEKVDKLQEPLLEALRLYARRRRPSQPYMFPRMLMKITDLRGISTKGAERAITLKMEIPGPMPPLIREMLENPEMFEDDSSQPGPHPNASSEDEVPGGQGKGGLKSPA
Description: as §1

[3] = molecular target: T2, RARα (Homo sapiens, UniProt P10276); experiment: Ligand binding assay, RARα
T2 sequence (P10276 1-462): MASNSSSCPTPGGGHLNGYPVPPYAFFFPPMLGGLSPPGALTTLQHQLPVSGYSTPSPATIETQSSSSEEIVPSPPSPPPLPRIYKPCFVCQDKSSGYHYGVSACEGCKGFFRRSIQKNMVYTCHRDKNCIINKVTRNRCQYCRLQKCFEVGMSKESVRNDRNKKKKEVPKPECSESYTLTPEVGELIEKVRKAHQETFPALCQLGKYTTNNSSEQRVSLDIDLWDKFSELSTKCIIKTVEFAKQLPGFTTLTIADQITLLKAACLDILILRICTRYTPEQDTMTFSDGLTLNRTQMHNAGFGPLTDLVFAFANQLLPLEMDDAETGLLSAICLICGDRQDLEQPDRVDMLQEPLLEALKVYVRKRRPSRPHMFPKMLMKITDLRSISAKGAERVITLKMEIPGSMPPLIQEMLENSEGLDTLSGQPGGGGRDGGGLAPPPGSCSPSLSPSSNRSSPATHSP
Description: as §1

[4] = efficiency relative to all-trans-retinoic acid, PGR assay

CC(C)(C)c1ccc(C#Cc2ccc(C(=O)O)cn2)cc1Oc1ccc(C(F)(F)F)cc1 [Compound 6, 6-[[4′-tert-Butyl-3′-(4″-trifluomethyl)phenoxy]phenylethynyl]-3-nicotinic Acid]
EC50 [1]: > 10000 nM | % Efficiency RARβ [1, 4]: 0% | Kd [2]: 317 nM | Kd [3]: 1050 nM

COC(=O)c1ccc(Oc2cc(C#Cc3ccc(C(=O)O)c(F)c3)ccc2C(C)(C)C)cc1 [Compound 10, 4-[[4′-tert-Butyl-3′-(4″-carbomethoxy)phenoxy]phenylethynyl]-2-fluorobenzoic Acid]
Emax [1, 4]: 0% | EC50 [1]: > 10000 nM | Kd [2]: 66 nM | Kd [3]: 15 nM

CC(C)(C)c1ccc(C#Cc2ccc(C(=O)O)c(F)c2)cc1Oc1ccc([N+](=O)[O-])cc1 [Compound 11, 4-[[4′-tert-Butyl-3′-(4″-nitro)phenoxy]phenylethynyl]-2-fluoro-benzoic Acid]
Emax [1, 4]: 3% | EC50 [1]: > 10000 nM | Kd [2]: 112 nM | Kd [3]: 24 nM

CC(C)(C)c1ccc(C(=O)Nc2ccc(C(=O)O)c(F)c2)cc1Oc1ccc(C(F)(F)F)cc1 [Compound 13, 4-[[4′-tert-Butyl-3′-(4″-trifluoromethyl)phenoxy]benzoylamino]-2-fluorobenzoic Acid]
Emax [1, 4]: 5% | EC50 [1]: > 10000 nM | Kd [2]: 5690 nM | Kd [3]: 11 nM
